Entries after “also recorded” stand apart in the source; their conditions may differ.
Columns and labels:
Type in all cases: in vivo
[1] = tested on: Amaranthus retroflexus L. (pigweed), Group 2,5 Resistant; assay: Post-emergent treatment of potted weeds with herbicide composition, 7 day growth (FIG. 5); details: 1% Juglone; weeds about 0-2 weeks post emergent (about 2-5 cm); 7 days after treatment
Experimental: (§1) Referring now to the figures, pictures of various weeds are shown herein after being treated with an herbicide composition described herein. In all of the pictures provided herein, weeds that were about 0-2 weeks post emergent (e.g. about 2-5 cm in height) were treated with an herbicide composition having a 1% Juglone concentration. In most cases, plant damage was observed within two hours of treatment of the weeds with the herbicide composition.
FIG. 5 is a picture of two pots showing 7 day growth of Amaranthus retroflexus L. (pigweed), Group 2,5 Resistant, when left untreated and treated with 1% Juglone, respectively.

[2] = tested on: Amaranthus rudis JD Sauer (Waterhemp), Group 2,4,5,14,9,27 Resistant; assay: Post-emergent treatment of potted weeds with herbicide composition, 7 day growth (FIG. 2); details: 1% Juglone; weeds about 0-2 weeks post emergent (about 2-5 cm); 7 days after treatment
Experimental: as §1
FIG. 2 is a picture of three pots showing 7 day growth of Amaranthus rudis JD Sauer (Waterhemp), Group 2,4,5,14,9,27 Resistant, when left untreated, treated with 1% Juglone, and treated with a control (i.e. solvent/surfactant, no active ingredient), respectively.

[3] = tested on: Amaranthus hybridus L. (smooth pigweed), Group 2,5 Resistant; assay: Post-emergent treatment of potted weeds with herbicide composition, 7 day growth (FIG. 7); details: 1% Juglone; weeds about 0-2 weeks post emergent (about 2-5 cm); 7 days after treatment
Experimental: as §1
FIG. 7 is a picture of three pots showing 7 day growth of Amaranthus hybridus L. (smooth pigweed), Group 2,5 Resistant, when left untreated, treated with 1% Juglone, and treated with a control (i.e. solvent/surfactant, no active ingredient), respectively.

[4] = tested on: Chenopodium album L. (lamb's quarters), Group 2,5 Resistant; assay: Post-emergent treatment of potted weeds with herbicide composition, 7 day growth (FIG. 4); details: 1% Juglone; weeds about 0-2 weeks post emergent (about 2-5 cm); 7 days after treatment
Experimental: as §1
FIG. 4 is a picture of three pots showing 7 day growth of Chenopodium album L. (lamb's quarters), Group 2,5 Resistant, when left untreated, treated with 1% Juglone, and treated with a control (i.e. solvent/surfactant, no active ingredient), respectively.

[5] = tested on: Solanum ptycanthum (eastern black nightshade), Group 2 Resistant; assay: Post-emergent treatment of potted weeds with herbicide composition, 7 day growth (FIG. 6); details: 1% Juglone; weeds about 0-2 weeks post emergent (about 2-5 cm); 7 days after treatment
Experimental: as §1
FIG. 6 is a picture of two pots showing 7 day growth of Solanum ptycanthum (eastern black nightshade), Group 2 Resistant, when left untreated and treated with […] Juglone, respectively.

weeds = assay: Onset of plant damage after treatment of weeds with herbicide composition; details: 1% Juglone concentration; weeds about 0-2 weeks post emergent; in most cases
Experimental: as §1

[6] = tested on: Amaranthus powelli (Powell's Amaranth), Group 2,5 resistant; assay: Post-emergent treatment of potted weeds with herbicide composition, 7 day growth (FIG. 1); details: 1% Juglone, weeds about 0-2 weeks post emergent (about 2-5 cm), 7 days after treatment
Experimental: as §1
Specifically, FIG. 1 is a picture of three pots showing 7 day growth of Amaranthus powelli (Powell's Amaranth), Group 2,5 resistant, when left untreated, treated with 1% Juglone, and treated with a control (i.e. solvent/surfactant, no active ingredient), respectively.

[7] = tested on: Amaranthus rudis JD Sauer (Waterhemp), non-resistant; assay: Post-emergent treatment of potted weeds with herbicide composition, 7 day growth (FIG. 3); details: 1% Juglone; weeds about 0-2 weeks post emergent (about 2-5 cm); 7 days after treatment
Experimental: as §1
FIG. 3 is a picture of three pots showing 7 day growth of Amaranthus rudis JD Sauer (Waterhemp), non-resistant, when left untreated, treated with 1% Juglone, and treated with a control (i.e. solvent/surfactant, no active ingredient), respectively.

## O=C1C=CC(=O)c2c(O)cccc21 [Juglone, 5-hydroxy-1,4-naphthalenedione]
[1]
  control of growth of Amaranthus retroflexus L. (pigweed), Group 2,5 Resistant: effectively controlled the growth
[2]
  control of growth of Amaranthus rudis JD Sauer (Waterhemp), Group 2,4,5,14,9,27 Resistant: effectively controlled the growth; also recorded: did control the growth
[3]
  control of growth of Amaranthus hybridus L. (smooth pigweed), Group 2,5 Resistant: effectively controlled the growth
[4]
  control of growth of Chenopodium album L. (lamb's quarters), Group 2,5 Resistant: effectively controlled the growth
[5]
  control of growth of Solanum ptycanthum (eastern black nightshade), Group 2 Resistant: effectively controlled the growth
weeds
  time to observed plant damage after treatment: two
[6]
  control of growth of Amaranthus powelli: effectively controlled the growth
[7]
  control of growth of Amaranthus rudis JD Sauer (Waterhemp), non-resistant: did not effectively control the growth

From patent publication US20210029994A1, “HERBICIDE COMPOSITIONS AND METHODS OF CONTROLLING GROWTH OF PLANTS” (priority 2019, published 2021)
